Test results reported in PubChem BioAssay (NCI).
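Each compound was tested at five concentrations against cells in 96-well plates for 48 hours. At the GI50, growth is halved. The concentration for full growth arrest is given as TGI.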

Assays:
Assay in all cases: inhibition of tumour cell growth, NCI panel, 48 h
[1] = tested on: SK-MEL-28 melanoma
[2] = tested on: HCT-15 colon
[3] = tested on: HCT-116 colon
[4] = tested on: SNB-19 CNS
[5] = tested on: CAKI-1 renal
[6] = tested on: OVCAR-4 ovarian
[7] = tested on: CCRF-CEM leukemia
[8] = tested on: SNB-75 CNS
[9] = tested on: OVCAR-5 ovarian
[10] = tested on: UACC-257 melanoma

COc1ccc(/C(=N/O)c2cc(F)c(F)c(OC)c2F)cc1O
GI50 [1]: 10.8 µM
TGI [1]: > 100 µM
GI50 [2]: 0.42 µM
TGI [2]: > 100 µM
GI50 [3]: 0.393 µM
TGI [3]: > 100 µM
GI50 [4]: 0.827 µM
TGI [4]: > 100 µM
GI50 [5]: 0.538 µM
TGI [5]: > 100 µM
GI50 [6]: 9.1 µM
TGI [6]: > 100 µM
GI50 [7]: 0.528 µM
TGI [7]: 35.2 µM
GI50 [8]: 0.309 µM
TGI [8]: > 100 µM

CCCOC(=O)C1C(c2ccc(OC)cc2)NC(c2ccc(OC)cc2)C(C(=O)OCCC)S1(=O)=O (stereo not given)
GI50 [1]: > 100 µM
TGI [1]: > 100 µM
GI50 [9]: > 100 µM
TGI [9]: > 100 µM
GI50 [2]: > 100 µM
TGI [2]: > 100 µM
GI50 [3]: > 100 µM
TGI [3]: > 100 µM
GI50 [4]: > 100 µM
TGI [4]: > 100 µM
GI50 [5]: > 100 µM
TGI [5]: > 100 µM
GI50 [6]: > 100 µM
TGI [6]: > 100 µM
GI50 [10]: > 100 µM
TGI [10]: > 100 µM
GI50 [8]: > 100 µM
TGI [8]: > 100 µM

CC1(C)CCOC(Sc2ccccc2)C1 (stereo not given)
TGI [1]: > 100 µM
TGI [2]: > 100 µM
TGI [3]: > 100 µM
TGI [4]: > 100 µM
TGI [5]: > 100 µM
TGI [6]: > 100 µM
TGI [10]: > 100 µM
TGI [7]: > 100 µM
TGI [8]: > 100 µM

O=C1c2ccccc2C(=O)N1CCN(CCN1C(=O)c2ccccc2C1=O)Cc1ccccc1
TGI [1]: > 100 µM
TGI [2]: > 100 µM
TGI [3]: > 100 µM
TGI [4]: > 100 µM
TGI [5]: > 100 µM
TGI [6]: > 100 µM
TGI [10]: > 100 µM
TGI [7]: > 100 µM

CCOC(=O)c1c(C)n(Cc2ccc(Cl)cc2Cl)c2c1cc(O)c1[nH]c(Cc3ccccc3)nc12
GI50 [1]: 13 µM
TGI [1]: 27.7 µM
GI50 [9]: 3.65 µM
TGI [9]: 9.36 µM
GI50 [2]: 3.94 µM
TGI [2]: 18.5 µM
GI50 [3]: 2.18 µM
TGI [3]: 4.76 µM
GI50 [4]: 5.54 µM
TGI [4]: 23.1 µM
GI50 [5]: 8.29 µM
TGI [5]: 26.8 µM
GI50 [6]: 4.15 µM
TGI [6]: 16.7 µM
GI50 [10]: 19.3 µM
TGI [10]: 39 µM
GI50 [8]: 5.89 µM
TGI [8]: 30.8 µM

O=C1CC2=CCCC2O1 (stereo not given)
TGI [1]: > 100 µM
TGI [2]: > 100 µM
TGI [3]: > 100 µM
TGI [4]: > 100 µM
TGI [5]: > 100 µM
TGI [6]: > 100 µM
TGI [10]: > 100 µM
TGI [7]: > 100 µM
TGI [8]: > 100 µM

O=C1C=C(c2ccccc2)NC1(c1ccccc1)c1cc(-c2ccccc2)[nH]c1-c1ccccc1 (stereo not given)
TGI [1]: > 100 µM
TGI [2]: > 100 µM
TGI [3]: > 100 µM
TGI [4]: > 100 µM
TGI [5]: > 100 µM
TGI [6]: > 100 µM
TGI [10]: > 100 µM
TGI [7]: > 100 µM
TGI [8]: > 100 µM

Cc1ccc(-c2csc3ncnc(Nc4cccc(O)c4)c23)cc1
GI50 [1]: 43.1 µM
TGI [1]: > 100 µM
GI50 [9]: 25.5 µM
TGI [9]: 69.6 µM
GI50 [2]: 19.8 µM
TGI [2]: 44.5 µM
GI50 [3]: 20 µM
TGI [3]: 39.6 µM
GI50 [4]: 50.7 µM
TGI [4]: > 100 µM
GI50 [6]: 44.6 µM
TGI [6]: > 100 µM
GI50 [10]: 17.5 µM
TGI [10]: 38.9 µM
GI50 [7]: 21 µM
TGI [7]: 91.1 µM
GI50 [8]: 39.6 µM
TGI [8]: > 100 µM
